Experiments:
Assay in all cases: relative viability (nuclei count vs DMSO), 5 days (fraction); higher = more cells survive
[1] = compound: CC(=O)Nc1cccc(-n2c(=O)n(C3CC3)c(=O)c3c(Nc4ccc(I)cc4F)n(C)c(=O)c(C)c32)c1 [Trametinib] + COc1cccc2cc(-c3nc([C@H]4CC[C@H](C(=O)O)CC4)n4ncnc(N)c34)[nH]c12 [OSI-027] (partner 0.5 µM)
Method in brief: (§1)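 Medians of duplicate plates are given as relative viability. That measure is the nuclei count in treated wells divided by the count in vehicle wells. Counts were taken on 4× images of lung cancer cell lines in 1536-well plates, 5 days after pin-tool dosing the day after seeding with one drug alone or a fixed anchor-drug dose plus five library-drug doses (not always all listed) in √10 steps.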

[2] = compound: CN1C=C(C2=CC=CC=C21)/C=C\3/C4=C(C=CC=N4)NC3=O + Cc1nc(Nc2ncc(C(=O)Nc3c(C)cccc3Cl)s2)cc(N2CCN(CCO)CC2)n1 [Dasatinib] (partner 0.075 µM)
Method in brief: as §1

[3] = compound: CC(=O)Nc1cccc(-n2c(=O)n(C3CC3)c(=O)c3c(Nc4ccc(I)cc4F)n(C)c(=O)c(C)c32)c1 [Trametinib] + NC(=O)Nc1cc(-c2cccc(F)c2)sc1C(=O)N[C@H]1CCCNC1 [AZD7762] (partner 0.2 µM)
Method in brief: as §1

[4] = compound: CN1C=C(C2=CC=CC=C21)/C=C\3/C4=C(C=CC=N4)NC3=O + NC(=O)Nc1cc(-c2cccc(F)c2)sc1C(=O)N[C@H]1CCCNC1 [AZD7762] (partner 0.2 µM)
Method in brief: as §1

Row | Cell Line | relative viability ([1]; first compound 0.0025 µM) | relative viability ([1]; first compound 0.007906 µM) | relative viability ([1]; first compound 0.025 µM) | relative viability ([1]; first compound 0.07906 µM) | relative viability ([1]; first compound 0.25 µM) | relative viability ([2]; first compound 0.02 µM) | relative viability ([2]; first compound 0.06325 µM) | relative viability ([2]; first compound 0.2 µM) | relative viability ([2]; first compound 0.6325 µM) | relative viability ([2]; first compound 2 µM) | relative viability ([3]; first compound 0.0025 µM) | relative viability ([3]; first compound 0.007906 µM) | relative viability ([3]; first compound 0.025 µM) | relative viability ([3]; first compound 0.07906 µM) | relative viability ([3]; first compound 0.25 µM) | relative viability ([4]; first compound 0.02 µM) | relative viability ([4]; first compound 0.6325 µM) | relative viability ([4]; first compound 2 µM) | relative viability ([4]; first compound 0.06325 µM) | relative viability ([4]; first compound 0.2 µM)
1 | EKVX | 0.667 | 0.532 | 0.379 | 0.473 | 0.426 | 0.411 | 0.427 | 0.464 | 0.449 | 0.358 | 0.653 | 0.712 | 0.583 | 0.442 | 0.769 | 0.676 | 0.644 | 0.607 |  | 
2 | HCC-827 | 0.702 | 0.671 | 0.529 | 0.392 | 0.429 | 0.296 | 0.354 |  | 0.28 | 0.427 | 0.226 | 0.17 | 0.153 | 0.183 | 0.161 | 0.202 | 0.246 | 0.215 | 0.187 | 
3 | NCI-H1755 | 0.668 | 0.673 | 0.559 | 0.707 | 0.664 | 0.365 | 0.411 | 0.37 | 0.402 | 0.351 | 0.457 | 0.405 | 0.428 | 0.426 | 0.352 | 0.443 | 0.448 | 0.409 | 0.408 | 0.354
4 | NCI-H661 | 0.686 | 0.595 | 0.51 | 0.522 | 0.389 | 0.892 | 0.827 | 0.626 | 0.819 | 0.853 |  |  |  |  |  |  |  |  |  | 
5 | NCI-H1944 | 0.359 | 0.309 | 0.318 | 0.279 | 0.23 | 0.214 | 0.215 |  | 0.194 | 0.217 | 0.511 | 0.39 | 0.344 | 0.366 | 0.311 | 0.442 | 0.464 | 0.469 | 0.471 | 
6 | NCI-H23 | 0.588 | 0.429 | 0.268 | 0.374 | 0.158 | 0.769 | 0.741 | 0.518 | 0.698 | 0.8 | 0.256 | 0.233 | 0.232 | 0.158 | 0.191 | 0.264 | 0.252 | 0.189 | 0.232 | 0.167
7 | NCI-H1648 |  | 0.28 | 0.273 | 0.279 | 0.272 |  |  |  |  |  | 0.69 | 0.716 | 0.879 | 0.78 | 0.441 | 0.705 | 0.522 | 0.816 | 0.502 | 0.673
8 | NCI-H522 | 0.592 | 0.653 | 0.595 | 1.57 | 0.587 | 0.896 | 0.803 | 0.844 | 0.784 | 0.874 | 0.875 | 1.01 | 0.703 | 0.69 | 0.88 | 0.686 | 1.1 | 0.882 | 0.784 | 0.76
9 | NCI-H1623 | 0.361 | 0.35 | 0.326 | 0.28 | 0.311 | 0.469 | 0.625 | 0.49 | 0.457 | 0.505 |  |  |  |  |  |  |  |  |  | 
10 | COR-L23 | 0.686 | 0.7 | 0.364 | 0.455 | 0.249 | 0.551 | 0.449 | 0.494 | 0.51 | 0.529 |  |  |  |  |  |  |  |  |  | 
11 | HCC-44 | 0.487 | 0.249 | 0.424 | 0.311 | 0.183 |  |  |  |  |  | 0.958 | 1.07 | 1.2 | 1.31 | 1.05 | 0.937 | 1 | 0.956 | 1.02 | 0.94
12 | NCI-H520 | 0.225 | 0.272 | 0.246 | 0.248 | 0.261 | 0.206 | 0.213 | 0.199 | 0.182 | 0.221 |  |  |  |  |  |  |  |  |  | 
13 | NCI-H2009 | 0.505 | 0.405 | 0.229 | 0.226 | 0.247 | 0.265 | 0.295 | 0.261 | 0.333 | 0.315 |  |  |  |  |  |  |  |  |  | 
14 | NCI-H1563 | 0.745 | 0.819 | 0.772 | 0.884 | 0.623 | 0.472 | 0.437 | 0.444 | 0.488 | 0.414 |  |  |  |  |  |  |  |  |  | 
15 | NCI-H1650 | 0.632 | 0.604 | 0.534 | 0.451 | 0.204 | 0.262 | 0.296 | 0.26 | 0.263 | 0.277 |  |  |  |  |  |  |  |  |  | 
16 | SK-LU-1 | 0.319 | 0.313 | 0.217 | 0.198 | 0.188 | 0.118 | 0.129 | 0.175 | 0.191 | 0.154 |  |  |  |  |  |  |  |  |  | 
17 | SK-MES-1 | 0.647 | 0.582 | 0.46 | 0.447 | 0.266 | 0.271 | 0.322 | 0.279 | 0.305 | 0.353 |  |  |  |  |  |  |  |  |  | 
18 | NCI-H2023 | 0.344 | 0.297 | 0.229 | 0.311 | 0.188 | 0.638 | 0.566 | 0.349 | 0.458 | 0.381 |  |  |  |  |  |  |  |  |  | 
19 | COR-L 105 | 0.583 | 0.477 | 0.309 | 0.333 | 0.295 | 0.306 | 0.298 | 0.273 | 0.34 | 0.367 |  |  |  |  |  |  |  |  |  | 
20 | SW 1573 | 0.474 | 0.486 | 0.344 | 0.338 | 0.285 | 0.348 | 0.537 | 0.488 | 0.633 | 0.516 |  |  |  |  |  |  |  |  |  | 
